Laboratory results published in US11612606B2, “8-aminoisoquinoline compounds and uses thereof” (priority 2018, dated 2023).
Where a name gives a salt, the structure may show the parent alone.

Target: HPK full length, T165E S171E (Homo sapiens (Human), UniProt Q92918, S171E/T165E)
Experiment: HPK1-FL HTRF enzymatic assay ("HTRF")
Format: biochemical
Conditions: ATP 1 mM, read-out: HPK1 Ki
Method: Assay Principle: HPK-FL enzyme phosphorylates Biotin-SLP-76 substrate in the presence of ATP at […] and varying concentrations of test compound. Product is detected by FRET using Eu-anti-pSLP76 Ab and SA-XL665. Also see www.cisbio.com/HTRF for additional HTRF technology information.
Instrumentation: Echo555 compound dispenser; Agilent Bravo; Perkin Elmer Envision.
To a 384 well Proxiplate with 80 nL compound or DMSO spotted on was added 4 μl/well kinase mix. The mixture was preincubated for 30 minutes and then 4 μl/well substrate mix was added. The solution was incubated for 60 min and then 4 μl/well detection mix was added. The solution was incubated for another 60 min.
Exemplary compounds were tested in the HTRF binding assays.

Sequence of HPK full length, T165E S171E (Q92918 whole entry T165E/S171E, looked up): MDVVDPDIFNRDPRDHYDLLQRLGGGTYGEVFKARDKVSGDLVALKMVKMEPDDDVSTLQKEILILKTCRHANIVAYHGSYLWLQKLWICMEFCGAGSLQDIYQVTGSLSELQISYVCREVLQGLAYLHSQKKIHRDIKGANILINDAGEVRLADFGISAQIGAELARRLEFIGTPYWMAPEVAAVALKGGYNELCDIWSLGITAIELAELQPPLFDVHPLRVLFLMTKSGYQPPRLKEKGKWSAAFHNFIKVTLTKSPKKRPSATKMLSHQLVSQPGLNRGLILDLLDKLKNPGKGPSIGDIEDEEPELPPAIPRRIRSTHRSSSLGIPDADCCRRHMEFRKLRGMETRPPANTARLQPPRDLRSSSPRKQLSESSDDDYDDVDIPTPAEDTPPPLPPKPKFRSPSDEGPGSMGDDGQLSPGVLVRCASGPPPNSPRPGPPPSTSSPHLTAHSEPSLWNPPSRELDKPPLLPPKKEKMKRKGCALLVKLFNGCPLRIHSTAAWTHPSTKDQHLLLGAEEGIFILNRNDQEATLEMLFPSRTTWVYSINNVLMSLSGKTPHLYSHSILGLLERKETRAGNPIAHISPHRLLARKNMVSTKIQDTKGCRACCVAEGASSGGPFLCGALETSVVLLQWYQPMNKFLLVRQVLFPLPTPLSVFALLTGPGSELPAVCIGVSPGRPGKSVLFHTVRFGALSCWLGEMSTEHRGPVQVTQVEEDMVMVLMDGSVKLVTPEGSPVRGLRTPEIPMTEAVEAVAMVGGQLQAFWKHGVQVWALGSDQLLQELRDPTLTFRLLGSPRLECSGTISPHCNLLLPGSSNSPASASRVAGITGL

Row | Compound | Ki [nM]
1 | Cc1c(-c2cc3cc(NC(=O)OC4CN(C(=O)[C@H]5C[C@@H]5F)C4)ncc3c(N)c2F)cnc2c1NCCO2 (single isomer, unassigned) [Compound 545a] | 0.021
2 | Cc1c(-c2cc3cc(NC(=O)OC4CN(C(=O)[C@@H]5C[C@H]5F)C4)ncc3c(N)c2F)cnc2c1NCCO2 (single isomer, unassigned) [Compound 545b] | 0.018
3 | CO[C@@H]1COC[C@H]1OC(=O)Nc1cc2cc(-c3cnc4c(c3C)NCCO4)c(F)c(N)c2cn1 (single isomer, unassigned) [Compound 546b] | 0.051
4 | CCc1c(-c2cc3cc(NC(=O)O[C@H]4COC[C@@H]4C)ncc3c(N)c2F)cnc2c1NCCO2 (single isomer, unassigned) [Compound 555a, hydrochloride] | < 0.013
5 | Cc1c(-c2cc(N)c3cnc(NC(=O)O[C@H]4COC[C@@H]4C)cc3c2)cnc2c1NCCO2 (single isomer, unassigned) [Compound 556a, hydrochloride] | 0.032
6 | Cc1c(-c2cc(N)c3cnc(NC(=O)O[C@@H]4COC[C@H]4C)cc3c2)cnc2c1NCCO2 (single isomer, unassigned) [Compound 556b, hydrochloride] | < 0.013
7 | Cc1c(-c2cc3cc(NC(=O)O[C@H]4COC[C@@H]4C)ncc3c(N)c2F)cnc2c1NC(=O)CO2 (single isomer, unassigned) [Compound 558a, hydrochloride] | 0.9
8 | Cc1c(-c2cc3cc(NC(=O)O[C@@H]4COC[C@H]4C)ncc3c(N)c2F)cnc2c1NC(=O)CO2 (single isomer, unassigned) [Compound 558b, hydrochloride] | 3.75
9 | Cc1c(-c2cc3cc(NC(=O)O[C@@H]4CC[C@@H]4C)ncc3c(N)c2F)cnc2c1NCCO2 (single isomer, unassigned) [Compound 559a] | 0.025
10 | Cc1c(-c2cc3cc(NC(=O)O[C@@H]4CC[C@@H]4C)ncc3c(N)c2F)cnc2c1NCCO2 (single isomer, unassigned) [Compound 559c] | < 0.013
11 | Cc1c(-c2cc3cc(NC(=O)OC4CC(O)C4)ncc3c(N)c2F)cnc2c1NC[C@@H](C)C2 (single isomer, unassigned) [Compound 560a] | 0.019
12 | Cc1c(-c2cc3cc(NC(=O)O[C@@H]4CCN(CC(F)F)C[C@@H]4F)ncc3c(N)c2F)cnc2c1NCCO2 (single isomer, unassigned) [Compound 566a] | 0.293
13 | Cc1c(-c2cc3cc(NC(=O)O[C@H]4CCN(CC(F)F)C[C@H]4F)ncc3c(N)c2F)cnc2c1NCCO2 (single isomer, unassigned) [Compound 566b] | 0.149
14 | Cc1c(-c2cc3cc(NC(=O)O[C@H]4COC[C@@H]4C)ncc3c(N)c2F)cnc2c1NC[C@H](F)O2 (single isomer, unassigned) [Compound 567a] | 0.33
15 | Cc1c(-c2cc3cc(NC(=O)O[C@H]4COC[C@@H]4C)ncc3c(N)c2F)cnc2c1NC[C@@H](F)O2 (single isomer, unassigned) [Compound 567b] | 0.119
16 | Cc1c(-c2cc3cc(NC(=O)O[C@H]4CO[C@@H]5OCC[C@@H]54)ncc3c(N)c2F)cnc2c1NCCO2 (single isomer, unassigned) [Compound 568a] | 0.185
17 | Cc1c(-c2cc3cc(NC(=O)O[C@@H]4CO[C@H]5OCC[C@H]54)ncc3c(N)c2F)cnc2c1NCCO2 (single isomer, unassigned) [Compound 568b] | 0.018
18 | Cc1c(-c2cc3cc(NC(=O)O[C@H]4C[C@@H]([C@H](C)O)C4)ncc3c(N)c2F)cnc2c1NCCO2 (single isomer, unassigned) [Compound 573a] | 0.015
19 | Cc1c(-c2cc3cc(NC(=O)O[C@H]4C[C@H]([C@H](C)O)C4)ncc3c(N)c2F)cnc2c1NCCO2 (single isomer, unassigned) [Compound 573b] | 0.019
20 | Cc1c(-c2cc3cc(NC(=O)O[C@H]4C[C@H]([C@@H](C)O)C4)ncc3c(N)c2F)cnc2c1NCCO2 (single isomer, unassigned) [Compound 573c] | 0.017
21 | Cc1c(-c2cc3cc(NC(=O)O[C@H]4C[C@@H]([C@@H](C)O)C4)ncc3c(N)c2F)cnc2c1NCCO2 (single isomer, unassigned) [Compound 573d] | < 0.013
22 | Cc1c(-c2cc3cc(NC(=O)O[C@@H]4Cc5ncnn5C4)ncc3c(N)c2F)cnc2c1NCCO2 (single isomer, unassigned) [Compound 578a] | 0.028
23 | Cc1c(-c2cc3cc(NC(=O)O[C@H]4Cc5ncnn5C4)ncc3c(N)c2F)cnc2c1NCCO2 (single isomer, unassigned) [Compound 578b] | 0.15
24 | Cc1c(-c2cc3cc(NC(=O)O[C@H]4CC[C@@H](O)C4)ncc3c(N)c2F)cnc2c1NCCO2 (single isomer, unassigned) [Compound 582a] | 0.02

Row | Compound | Ki [nM]
25 | Cc1c(-c2cc3cc(NC(=O)O[C@@H]4CC[C@H](O)C4)ncc3c(N)c2F)cnc2c1NCCO2 (single isomer, unassigned) [Compound 582b] | 0.02
26 | CO[C@H]1COCC[C@@H]1OC(=O)Nc1cc2cc(-c3cnc4c(c3C)NCCO4)c(F)c(N)c2cn1 (single isomer, unassigned) [Compound 583a] | 0.12
27 | CO[C@H]1COCC[C@H]1OC(=O)Nc1cc2cc(-c3cnc4c(c3C)NCCO4)c(F)c(N)c2cn1 (single isomer, unassigned) [Compound 583b] | 0.021
28 | CO[C@@H]1COCC[C@@H]1OC(=O)Nc1cc2cc(-c3cnc4c(c3C)NCCO4)c(F)c(N)c2cn1 (single isomer, unassigned) [Compound 583c] | 0.099
29 | CO[C@@H]1COCC[C@H]1OC(=O)Nc1cc2cc(-c3cnc4c(c3C)NCCO4)c(F)c(N)c2cn1 (single isomer, unassigned) [Compound 583d] | 0.72
30 | Cc1c(-c2cc3cc(NC(=O)O[C@H]4C[C@@H](O)C4)ncc3c(N)c2F)cnc2c1NC[C@@H]1C[C@H]21 (single isomer, unassigned) [Compound 584a] | 0.14
31 | Cc1c(-c2cc3cc(NC(=O)O[C@H]4C[C@@H](O)C4)ncc3c(N)c2F)cnc2c1NC[C@H]1C[C@@H]21 (single isomer, unassigned) [Compound 584b] | 2.1
32 | Cc1c(-c2cc3cc(NC(=O)N[C@@H]4CCN(C)C[C@H]4F)ncc3c(N)c2F)cnc2c1NCCO2 (single isomer, unassigned) [Compound 703a] | 0.022
33 | Cc1c(-c2cc3cc(NC(=O)N[C@H]4CCN(C)C[C@@H]4F)ncc3c(N)c2F)cnc2c1NCCO2 (single isomer, unassigned) [Compound 703b] | < 0.013
34 | Cc1c(-c2cc3cc(NC(=O)N[C@H]4CCN(C)C[C@H]4F)ncc3c(N)c2F)cnc2c1NCCO2 (single isomer, unassigned) [Compound 703c, (±)-1-(8-Amino-7-fluoro-6-(8-methyl-2,3-dihydro-1H-pyrido[2,3-b][1,4]oxazin-7-yl)isoquinolin-3-yl)-3-((cis)-3-fluoro-1-methylpiperidin-4-yl)urea] | 0.03
35 | CC(=O)N1CC[C@H](NC(=O)Nc2cc3cc(-c4cnc5c(c4C)NCCO5)c(F)c(N)c3cn2)[C@H](F)C1 (single isomer, unassigned) [Compound 710a, (±)-1-((cis)-1-Acetyl-3-fluoropiperidin-4-yl)-3-(8-amino-7-fluoro-6-(8-methyl-2,3-dihydro-1H-pyrido[2,3-b][1,4]oxazin-7-yl)isoquinolin-3-yl)urea] | < 0.013
36 | Cc1c(-c2cc3cc(NC(=O)N[C@H]4CCCOC4)ncc3c(N)c2F)cnc2c1NCCO2 (single isomer, unassigned) [Compound 711a] | < 0.013
37 | Cc1c(-c2cc3cc(NC(=O)N[C@@H]4CCCOC4)ncc3c(N)c2F)cnc2c1NCCO2 (single isomer, unassigned) [Compound 711b] | < 0.013
38 | Cc1c(-c2cc3cc(NC(=O)N[C@@H]4CCOC4)ncc3c(N)c2F)cnc2c1NCCO2 (single isomer, unassigned) [Compound 722a] | < 0.013
39 | Cc1c(-c2cc3cc(NC(=O)N[C@H]4CCOC4)ncc3c(N)c2F)cnc2c1NCCO2 (single isomer, unassigned) [Compound 722b] | < 0.013
40 | CO[C@@H]1COC[C@@H]1NC(=O)Nc1cc2cc(-c3cnc4c(c3C)NCCO4)c(F)c(N)c2cn1 (single isomer, unassigned) [Compound 723a] | 0.469
41 | CO[C@H]1COC[C@H]1NC(=O)Nc1cc2cc(-c3cnc4c(c3C)NCCO4)c(F)c(N)c2cn1 (single isomer, unassigned) [Compound 723b] | 0.029
42 | Cc1c(-c2cc3cc(NC(=O)N[C@H]4COC[C@H]4F)ncc3c(N)c2F)cnc2c1NCCO2 (single isomer, unassigned) [Compound 724a] | 0.019
43 | Cc1c(-c2cc3cc(NC(=O)N[C@@H]4COC[C@@H]4F)ncc3c(N)c2F)cnc2c1NCCO2 (single isomer, unassigned) [Compound 724b] | 0.019
44 | Cc1c(-c2cc3cc(NC(=O)N[C@@H]4CC[C@H](C#N)C4)ncc3c(N)c2F)cnc2c1NCCO2 (single isomer, unassigned) [Compound 726a] | < 0.013
45 | Cc1c(-c2cc3cc(NC(=O)N[C@H]4CC[C@@H](C#N)C4)ncc3c(N)c2F)cnc2c1NCCO2 (single isomer, unassigned) [Compound 726b] | 0.016
46 | CO[C@@H]1CCC[C@@H]1NC(=O)Nc1cc2cc(-c3cnc4c(c3C)NCCO4)c(F)c(N)c2cn1 (single isomer, unassigned) [Compound 729a] | 1.37
47 | CO[C@H]1CCC[C@H]1NC(=O)Nc1cc2cc(-c3cnc4c(c3C)NCCO4)c(F)c(N)c2cn1 (single isomer, unassigned) [Compound 729b] | 0.015
48 | Cc1c(-c2cc3cc(NC(=O)N[C@H]4C[C@H]4C)ncc3c(N)c2F)cnc2c1NCCO2 (single isomer, unassigned) [Compound 736a] | < 0.013
